{"source": "patent US20120165403A1", "about": "“METHODS OF INHIBITING THE ACTIVITY OF HSP90 AND/OR ARYL HYDROCARBON RECEPTOR” (UNIVERSITY OF ROCHESTER, priority 2004, published 2012)", "key": {"chicken hsp90 [1]": {"system": "chicken hsp90", "test": "Affinity chromatography on EGCG-conjugated Sepharose, hsp90 point and truncation mutants", "format": "binding", "source_text": "(§1) Murine AhR and ARNT cDNA (obtained from J. Whitlock and O. Hankinson, respectively) were inserted into pcDNA3 (Invitrogen, Carlsbad, Calif.). Chicken hsp90 constructs (FIG. 5), c90711hsp (wild-type), c90G94D (wild-type point mutant gly94→Asp (Grenert et al., J. Biol. Chem. 272:23843-23850 (1997), which is hereby incorporated by reference in its entirety), c90D92A (wild-type point mutant Asp92→Ala (Sullivan et al., J. Biol. Chem. 268:20373-20379 (1993), which is hereby incorporated by reference in its entirety), c90N221 (wild-type truncation mutant encoding a.a. 221-728 (Sullivan et al., J. Biol. Chem. 268:20373-20379 (1993), which is hereby incorporated by reference in its entirety)), c90N303 (a.a. 303-728) and c90N538 (a.a. 538-728) were kind gifts from Dr. D. Toft (Rochester, Minn.). The C-terminal truncation mutant c900507 (a.a. 1-221) was obtained from Dr. L. Neckers (Rockville, Md.) (Grenert et al., J. Biol. Chem. 272:23843-23850 (1997); Marcu et al., J. Biol. Chem. 275:37181-37186 (2000), which are hereby incorporated by reference in their entirety). Human p23 cDNA was excised from pQE80-p23 (obtained from W. Chan Stockton, Calif.) by sequential digests using the restriction enzymes Sad (3′-end) and BamHI (5′-end) and inserted into the similarly digested pET28a (Novagen, Madison, Wis.). The mouse histidine-tagged XAP2 construct, pET-AIP (Bell et al., J. Biol. Chem. 275:36407-36414 (2000), which is hereby incorporated by reference in its entirety), was a kind gift from Dr. D. Bell (Nottingham, UK). All constructs are in the T7 orientation with the exception of c900507, which is driven by an SP6 promoter.\nAhR, ARNT, hsp90 (wild-type, point mutants, and truncation mutants), p23, and XAP2 were generated (separately) by coupled transcription/translation in rabbit reticulocyte lysate (RRL) using the TNT® system according to the manufacturer's protocol (Promega, Madison Wis.). In this system, ^35S-methionine was included in the transcription/translation mix to generate ^35S-labeled protein.\nEGCG was conjugated to cyanogen bromide (CNBr)-activated Sepharose (Sigma). […]"}, "chicken hsp90 [2]": {"target": "T1, chicken hsp90 (Gallus gallus, UniProt P11501)", "test": "Affinity chromatography on EGCG-conjugated Sepharose, hsp90 point and truncation mutants", "format": "binding", "design": "made in house; host or cells: coupled transcription/translation in rabbit reticulocyte lysate (TNT, Promega), 35S-labelled", "conditions": "smallest truncation mutant N538, amino acids 538-728", "source_text": "as §1, with “The mouse histidine-tagged XAP2 construct, pET-AIP (Bell et al., J. Biol. Chem. 275:36407-36414 (2000), which is hereby incorporated by reference in its entirety), was a kind gift from Dr. D. Bell (Nottingham, UK). All constructs are in the T7 orientation with the exception of c900507, which is driven by an SP6 promoter.” left out"}, "chicken hsp90 [3]": {"target": "T1, chicken hsp90", "test": "Trypsin treatment of in vitro translated hsp90", "format": "biochemical", "design": "made in house; host or cells: TNT rabbit reticulocyte lysate, 35S-labelled", "conditions": "in absence of AhR or ARNT, trypsin 10 minutes at room temperature", "description": "Chicken hsp90 was translated in vitro using the TNT RRL system as described supra in the presence of [^35S]Methionine, diluted, incubated with DMSO or EGCG, and treated with trypsin at indicated concentrations for 10 minutes at room temperature. All samples were separated by 10% SDS-PAGE, transferred to PVDF membrane, and visualized by phosphorImager. Results of the experiment are illustrated in FIG. 13. […] Therefore, the ability of EGCG to affect hsp90 conformation is not dependent on the presence of AhR or ARNT."}}}
{"molecule": "O=C(O[C@@H]1Cc2c(O)cc(O)cc2O[C@@H]1c1cc(O)c(O)c(O)c1)c1cc(O)c(O)c(O)c1", "note": "[EGCG, epigallocatechin gallate]", "values": [{"measurement": "binding of C-terminal hsp90 fragments", "setting": "chicken hsp90 [1]; all C-terminal fragments (N221, N303, N538)", "result": "bound EGCG"}, {"measurement": "binding of N-terminal point mutants D92A, G94D to EGCG-Sepharose", "setting": "chicken hsp90 [1]; compared with wild type hsp90", "result": "bound to EGCG-Sepharose as well as or better than the wild type hsp90"}, {"measurement": "binding of amino-terminal hsp90 fragment C507 to immobilized EGCG", "setting": "chicken hsp90 [1]; fragment containing the GA binding site", "result": "failed to bind to immobilized EGCG"}, {"measurement": "location of the binding site on hsp90", "setting": "chicken hsp90 [2]", "result": "binding of EGCG occurs within this region of the protein"}, {"measurement": "effect on hsp90 conformation (trypsin treatment)", "setting": "chicken hsp90 [3]", "result": "altered conformation of hsp90"}]}
